Measurements: patent US20060200330A1, “Methods and systems for modeling and simulating biochemical pathways” (KOREA INSTITUTE OF SCIENCE AND TECHNOLOGY, priority 2005, published 2006)

Legend:
MAPK pathway = settings: cited from earlier work; for effect on ERK activation, as reported: literature report
ERK = experiment: Western blot of ERK activation (anti-diphosphorylated ERK) in PC12 cells; type: cell-based; settings: PC12 cells, PD09859 10 μM or U0126 0.01-10 μM, 100 ng/ml EGF or NGF for 5 min
Protocol: (§1) In order to confirm the simulation, PC12 cells treated with EGF (100 ng/ml) were used to measure the time data tracking the activation levels of MEK and ERK, respectively. […] Western blot analysis was performed as follows. PC12 cells were treated with 100 ng/ml EGF for 0 to 120 min. Dissolved protein samples were reacted by using anti-phosphorylated MEK antibodies and anti-diphosphorylated ERK antibodies. Then, the resultant was reacted with anti-HRP (horse radish peroxidase)-conjugated secondary antibodies and confirmed the presence of a band via ECL chemoluminscence.
(§2) PC12 cells treated with EGF or nerve growth factor (NGF) were examined to evaluate the efficacies of PD09859 (10 μM) and U0126 (0.01-10 μM) in respect of MEK and ERK activation. Western blot analysis was performed as follows. PC12 cells treated with PD09859 and U0126 were treated with 100 ng/ml of EGF or NGF for 5 min. Then, the resulting protein sample was separated by performing SDS/PAGE, and then blotted by using anti-phosphorylated MEK and anti-diphosphoryated ERK antibodies. Again, the resultant was blotted by using anti-HRP (horseradish peroxidase) conjugated secondary antibodies and identified in bands by ECL chemo-luminescence.

MEK = experiment: Western blot of MEK activation (anti-phosphorylated MEK) in PC12 cells; type: cell-based; settings: PC12 cells, U0126 0.01-10 μM, 100 ng/ml EGF or NGF for 5 min
Protocol: as §1, §2

Structure (SMILES)	effect on ERK activation, as reported (MAPK pathway)	ERK activation / intracellular ERK phosphorylation (ERK)	MEK activation (MEK)	inhibition of MAPK pathway compared with the other inhibitor (MAPK pathway; U0126 versus PD09859, literature report)
COc1cccc(-c2cc(=O)c3ccccc3o2)c1N [PD98059]	suppress ERK activation	not suppressed		
N#CC(=C(/N)Sc1ccccc1N)/C(C#N)=C(\N)Sc1ccccc1N [U0126]	suppress ERK activation	suppressed by the MEK activity dose-dependently	not suppressed	more effective and specific
